From patent publication US20230227445A1, “BENZAMIDE COMPOUND AND USE THEREOF” (HUMANWELL HEALTHCARE (GROUP) CO., LTD., priority 2020, published 2023) come the findings set out here.

Counter-ions that a name gives are not always drawn.

Broadly, the IC50 is the midpoint of a concentration-inhibition curve. By AUC(0-t) is commonly meant the area under the concentration-time curve up to a stated or last time point. Broadly, the Cmax is the peak of the concentration-time curve. One may read the Tmax as the time from dosing to the highest level.

In one data set the target is T1, hP2X3 receptor (Homo sapiens, UniProt P56373).
T1 construct: expressed in transfected cells
T1 sequence (P56373 1-397): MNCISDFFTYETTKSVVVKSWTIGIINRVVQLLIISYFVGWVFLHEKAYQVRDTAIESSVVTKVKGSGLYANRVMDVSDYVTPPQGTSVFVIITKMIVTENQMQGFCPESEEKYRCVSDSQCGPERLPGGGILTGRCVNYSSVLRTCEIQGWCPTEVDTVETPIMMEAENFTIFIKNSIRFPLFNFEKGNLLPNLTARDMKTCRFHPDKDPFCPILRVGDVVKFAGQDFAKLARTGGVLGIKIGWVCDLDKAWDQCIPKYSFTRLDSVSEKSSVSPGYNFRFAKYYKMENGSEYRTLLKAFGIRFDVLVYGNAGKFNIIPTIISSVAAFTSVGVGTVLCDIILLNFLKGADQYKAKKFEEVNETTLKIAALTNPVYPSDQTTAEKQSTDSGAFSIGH
Briefly: Antagonistic activity against hP2X3 receptor by FLIPR calcium flow assay. The format is cell-based. The note with it: for IC50: human cells stably transfected with hP2X3, agonist α,β-meATP 400 nM; for antagonistic activity against hP2X3 receptor compared with Reference compound 1 (in words): vs Reference compound 1. The protocol:
The antagonistic activity of hP2X3 antagonists against hP2X3 receptor was evaluated by means of FLIPR Calcium 4 Assay Kit (Molecular Devices, R8141) and FLIPR TETRA instrument (Molecular Devices, 0296) by detecting calcium flow signals. 24h before the experiment, human cells, which had been stably transfected with hP2X3 receptors, were plated on a 384-well plate at 2×10^5 cells/mL, with 50 μL of cell suspension per well, and the plate was cultured in an incubator (37° C., 5% CO2) for 16 h to 24 h. The test compound solution (20 to 50 mM DMSO stock solution) with a concentration of 180 times the required concentration was prepared using DMSO. The stock solution was added to the 384-well plate at 500 nL per well, supplemented with 30 μL of FLIPR Assay buffer (1×HBSS+2 mM CaCl2 20 mM HEPES containing 1.26 mM Ca^2+). The 384-well plate was shaken for 20 to 40 min to mix evenly. An agonist (α, β-meATP) with a concentration of 3 times the required concentration (required final concentration was 400 nM) was prepared with FLIPR Assay buffer, and was added to another 384-well plate at 45 μL per well. The culture plate, on which the cells were plated one day ago, was taken, the cell supernatant was sucked and discarded, each well was added with 30 μL of Dye (FLIPR® Calcium 4 Assay Kit, diluted with FLIPR buffer), and then the plate was incubated for 1h. 15 μL of compound was added to each well of cells (using FLIPR sample injector). After 15 minutes, 22.5 μL of the agonist was added to each well, and the fluorescence signal (exciting light wavelength ranging from 470 nm to 495 nm, and emission wavelength ranging from 515 nm to 575 nm) was detect. […] An inhibition effect curve of the compound was fitted on the software GraphpadPrism6, and the IC50 value was calculated.

The test system of the next data set is rat taste. Kind of data set: Taste test in rat (water vs 0.3 mM aqueous quinine solution intake). The class given is in vivo, SD rats. The note with it: SD rats, 30 mg/kg i.p, 0.3 mM quinine, 15 min supply half an hour after administration. The procedure: SD rats were administered with the corresponding compound after 3 days of overnight water prohibition training. Each rat was supplied with 1 bottle of water and 1 bottle of 0.3 mM aqueous quinine solution half an hour after the administration. After 15 min of water supply, the bottles were removed. The intake amount of water and the intake amount of the 0.3 mM aqueous quinine solution were measured, respectively. The taste influence of the compound on SD rats was evaluated based on the difference between the intake amount of water and the intake amount of the aqueous quinine solution.

A short description of data set [1]: Pharmacokinetic assay in mouse. The format is in vivo, ICR mice. The procedure: For a mouse pharmacokinetic assay, male ICR mice (20 g to 25 g) were selected and fasted overnight. Three mice were intragastrically administered with 10 mg/kg of the corresponding compound. The blood of the mice was collected before the administration and at 15 min, 30 min, 1 h, 2 h, 4 h, 8 h, and 24 h after the administration. The blood samples were centrifuged at 4° C. for 6 minutes at 6,800 g, plasma was collected and stored at −80° C.
The supernatant was mixed with 3 times the amount of water, and an appropriate amount of the mixed solution was taken for LC-MS/MS analysis. The primary pharmacokinetic parameters were analyzed by WinNonlin 7.0 software non-atrioventricular model.

Data set [2] has as its system histamine/citric acid-stimulated cough in guinea pig. Briefly: Efficacy test for histamine/citric acid-stimulated cough in guinea pig. The format is in vivo. The note with it: guinea pigs, nasal drops, 0.17 mg/kg to 1.5 mg/kg, histamine/citric acid stimulation. The procedure:
Guinea pigs were adaptively fed for 3 days to 7 days before being grouped. When the body weight of the guinea pigs reached 300 g to 400 g, they were numbered and randomly grouped.
Compounds or an excipient were administered to guinea pigs by nasal drops 0.25 hour to 24 hours before the start of the cough assessment. The administration dose of the test sample ranged from 0.17 mg/kg to 1.5 mg/kg. For the cough assessment, the guinea pigs were placed in a whole-body volume scan box for adaptation, and then, they were provided with histamine nebulization and then citric acid nebulization. […]
The experimental data was statistically analyzed by one-way ANOVA to analyze and compare data of the various groups. The statistical analysis result p<0.05 was regarded as a significant difference. The t-test was employed for difference comparison between any two.

Setting [3] is: mouse, plasma, po, male ICR mice, intragastric administration, 10 mg/kg.

As to `Cc1cnc(-c2cc(OC(C)C(C)O)cc(C(=O)N[C@H](C)c3cnc(C(F)(F)F)nc3)c2F)s1` (single isomer, unassigned) [Compound I-4], on hP2X3 receptor, the IC50 was found to be 0.063 µM and the “antagonistic activity against hP2X3 receptor compared with Reference compound 1 (in words)” value is “better antagonistic activity”.

As to `Cc1cnc(-c2cc(OC(C)C(C)O)cc(C(=O)N[C@H](C)c3cnc(C(F)(F)F)nc3)c2F)s1` (single isomer, unassigned) [Compound I-5], at hP2X3 receptor, the 50% inhibitory concentration (IC50) worked out at 0.05 µM and the “antagonistic activity against hP2X3 receptor compared with Reference compound 1 (in words)” value is “better antagonistic activity”.

On to `Cc1cnc(-c2cc(O[C@@H]3CCOC3)c(F)c(C(=O)N[C@H](C)c3cnc(C(F)(F)F)nc3)c2)s1` [Compound I-2, 2-fluoro-5-(5-methylthiazol-2-yl)-3-(((R)-tetrahydrofuran-3-yl)oxy)-N—((R)-1-(2-(trifluoromethyl)pyrimidin-5-yl)ethyl)benzamide], for which, on hP2X3 receptor, the half-maximal inhibitory concentration (IC50) is 0.298 µM.

`Cc1cnc(-c2cc(C(=O)N[C@H](C)c3cnc(C(F)(F)F)nc3)cc(O[C@@H]3CCOC3)c2F)s1` [Compound I-3, 4-fluoro-3-(5-methylthiazol-2-yl)-5-(((R)-tetrahydrofuran-3-yl)oxy)-N—((R)-1-(2-(trifluoromethyl)pyrimidin-5-yl)ethyl)benzamide]: the concentration for half-maximal inhibition (IC50) at hP2X3 receptor amounted to 0.168 µM.

For the compound `CC(O)C(C)Oc1cc(C(=O)N[C@H](C)c2cnc(C(F)(F)F)nc2)c(F)c(-c2ncc(Cl)s2)c1` (stereo partly drawn) [Compound I-7, 3-(5-chlorothiazol-2-yl)-2-fluoro-5-((cis-3-hydroxybutan-2-yl)oxy)-N—((R)-1-(2-(trifluoromethyl)pyrimidin-5-yl)ethyl)benzamide], the 50% inhibitory concentration (IC50) on hP2X3 receptor stood at 0.271 µM.

On to `Cc1cnc(-c2cc(OC[C@@H]3COCCN3C)cc(C(=O)N[C@H](C)c3cnc(C(F)(F)F)nc3)c2F)s1` [Compound I-9, 2-fluoro-5-(((S)-4-methylmorpholin-3-yl)methoxy)-3-(5-methylthiazol-2-yl)-N—((R)-1-(2-(trifluoromethyl)pyrimidin-5-yl)ethyl)benzamide], for which, at hP2X3 receptor, the IC50 stood at 0.305 µM.

With `Cc1cnc(-c2cc(OC3COC3)cc(C(=O)N[C@H](C)c3cnc(C(F)(F)F)nc3)c2F)s1` [Compound I-14, (R)-2-fluoro-3-(5-methylthiazol-2-yl)-5-(oxetane-3-yloxy)-N-(1-(2-(trifluoromethyl)pyrimidin-5-yl)ethyl)benzamide], on hP2X3 receptor, the IC50 is 0.099 µM and the “antagonistic activity against hP2X3 receptor compared with Reference compound 1 (in words)” value was “better antagonistic activity”.

Consider `Cc1cnc(-c2cc(OCC3CC3)cc(C(=O)N[C@H](C)c3cnc(C(F)(F)F)nc3)c2F)s1` [Compound I-15, (R)-5-(cyclopropylmethoxy)-2-fluoro-3-(5-methylthiazol-2-yl)-N-(1-(2-(trifluoromethyl)pyrimidin-5-yl)ethyl)benzamide], for which the IC50 on hP2X3 receptor amounted to 1.36 µM.

For the compound `Cc1cnc(-c2cc(OC3CCN(C)CC3)cc(C(=O)N[C@H](C)c3cnc(C(F)(F)F)nc3)c2F)s1` [Compound I-16, (R)-2-fluoro-5-((1-methylpiperidin-4-yl)oxy)-3-(5-methylthiazol-2-yl)-N-(1-(2-(trifluoromethyl)pyrimidin-5-yl)ethyl)benzamide], on hP2X3 receptor, the IC50 is 0.433 µM.

As for `Cc1cnc(-c2cc(OC3CCNCC3)cc(C(=O)N[C@H](C)c3cnc(C(F)(F)F)nc3)c2F)s1` [Compound I-17, (R)-2-fluoro-5-((1-piperidin-4-yl)oxy)-3-(5-methylthiazol-2-yl)-N-(1-(2-(trifluoromethyl)pyrimidin-5-yl)ethyl)benzamide], at hP2X3 receptor, the IC50 is 0.388 µM.

Consider `Cc1cnc(-c2cc(OC[C@H]3CNCCO3)cc(C(=O)N[C@H](C)c3cnc(C(F)(F)F)nc3)c2F)s1` [Compound I-18, 2-fluoro-3-(5-methylthiazol-2-yl)-5-(((R)-morpholin-2-yl)methoxy)-N—((R)-1-(2-(trifluoromethyl)pyrimidin-5-yl)ethyl)benzamide hydrochloride], for which the half-inhibitory concentration (IC50) on hP2X3 receptor worked out at 0.448 µM.

For the compound `Cc1cnc(-c2cc(OC[C@H]3CN(C)CCO3)cc(C(=O)N[C@H](C)c3cnc(C(F)(F)F)nc3)c2F)s1` [Compound I-19, 2-fluoro-5-(((R)-4-methylmorpholin-2-yl)methoxy)-3-(5-methylthiazol-2-yl)-N—((R)-1-(2-(trifluoromethyl)pyrimidin-5-yl)ethyl)benzamide], the half-maximal inhibitory concentration (IC50) at hP2X3 receptor was 0.31 µM.

Turning to `[2H]C([2H])([2H])N1CCO[C@@H](COc2cc(C(=O)N[C@H](C)c3cnc(C(F)(F)F)nc3)c(F)c(-c3ncc(C)s3)c2)C1` [Compound I-20, 2-fluoro-5-(((R)-4-(methyl-d3)morpholin-2-yl)methoxy)-3-(5-methylthiazol-2-yl)-N—((R)-1-(2-(trifluoromethyl)pyrimidin-5-yl)ethyl)benzamide], at hP2X3 receptor, the IC50 was 0.373 µM.

Turning to `Cc1cnc(-c2cc(O[C@@H](C)[C@H](C)O)cc(C(=O)N[C@H](C)c3cnc(C(F)(F)F)nc3)c2F)s1` [Compound I-28, 2-fluoro-5-(((2S, 3S)-3-hydroxybutan-2-yl)oxy)-3-(5-methylthiazol-2-yl)-N—((R)-1-(2-(trifluoromethyl)pyrimidin-5-yl)ethyl)benzamide], on hP2X3 receptor, the 50% inhibitory concentration (IC50) was 0.063 µM and the “antagonistic activity against hP2X3 receptor compared with Reference compound 1 (in words)” value is on record as “better antagonistic activity”. Further, the “Water/aqueous quinine solution (ratio of water intake to aqueous quinine solution intake)” value in the data set on rat taste turned out to be 15.4. Besides, the “pharmacokinetic properties in mouse compared with Reference compound 1 and Reference compound 2 (in words)” value in data set [1] (mouse assay, vs Reference compounds 1 and 2) is listed as “significantly improved pharmacokinetic properties”. In data set [1] (setting [3]), the area under the curve AUC(0-t) is 8760 ng·h/mL, the peak level (Cmax) was 2400 ng/mL and the Tmax turned out to be 0.5 h. In data set [1] (mouse, plasma, po, male ICR mice, intragastric administration, 10 mg/kg, read-out: T½ (converted)), the half-life was 2.65 h. In data set [2], the “Average cough times within 15 min” value worked out at 9.1 and the “Cough inhibition rate vs. solvent” value is 65.8%.
